The source of these data is ChEMBL document CHEMBL1201862, “PubChem BioAssay data set” (2004).

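Cells were grown in 96-well plates and exposed to each compound for 48 hours at five concentrations; endpoints were interpolated linearly between bracketing concentrations, or set to the highest concentration if not reached. GI50 = concentration required for 50% inhibition of growth.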 The source made the active and inactive calls. Cut-off read from the data, not from the text of the source: active = GI50 up to about 1.1 µM and inactive = higher.

Holding throughout (experiment): NCI tumour cell line growth inhibition, 48 h
In assay [1] the test system is OVCAR-3.
For assay [2], the system named is Hs-578T.
The subject of assay [3] is HOP-92.
In assay [4] the test system is MDA-N.
The subject of assay [5] is NCI-H23.
The subject of assay [6] is EKVX.
For assay [7], the system named is KM12.
Assay [8] deals with NCI-H522.
Assay [9] deals with MOLT-4.
The test system of assay [10] is A498.
Assay [11] relates to SR.
The test system of assay [12] is HL-60.
The subject of assay [13] is HOP-62.
Assay [14] has as its system OVCAR-8.
The subject of assay [15] is SK-MEL-2.
Assay [16] deals with NCI/ADR-RES.
In assay [17] the test system is UACC-257.
In assay [18] the test system is PC-3.
In assay [19] the test system is K562.

Take `Cc1ccc(S(=O)(=O)NCc2cccc([N+](=O)[O-])c2)cc1`: the GI50 in assay [1] is 72.8 µM (inactive); in assay [2], > 100 µM (inactive); in assay [3], > 100 µM (inactive); in assay [4], > 100 µM (inactive); in assay [5], > 100 µM (inactive); in assay [6], > 100 µM (inactive). In addition, the GI50 in assay [7] is > 100 µM (inactive); in [8], 64.6 µM (inactive); in assay [9], 0.136 µM (active); in assay [10], > 100 µM (inactive); in [11] it was 5.3 µM (inactive); in assay [12] it was 28.8 µM (inactive). For the same compound, the GI50 was > 100 µM (inactive) in assay [13]; > 100 µM (inactive) in assay [14]; > 100 µM (inactive) in [15]; > 100 µM (inactive) in [16]; 75.9 µM (inactive) in assay [17]; > 100 µM (inactive) in [18].
In the case of `COP(=O)(OC)/C(=C/c1cn(C(c2ccccc2)(c2ccccc2)c2ccccc2)cn1)NC=O`, the GI50 in assay [1] was 14.9 µM (inactive); in assay [2], 16 µM (inactive); in assay [3] it was 18 µM (inactive); in assay [4] it was 19.2 µM (inactive); in [5] it was 19.5 µM (inactive); in [6] it was 22 µM (inactive). The GI50 in [7] is 32.9 µM (inactive); in assay [8], 15.5 µM (inactive); in assay [9], > 100 µM (inactive); in assay [10], 16.6 µM (inactive); in [11] it was > 100 µM (inactive); in [12], > 100 µM (inactive). Also, the GI50 is 17.7 µM (inactive) in assay [13]; 21.7 µM (inactive) in assay [14]; 84.9 µM (inactive) in [19]; 16.9 µM (inactive) in [15]; 17.3 µM (inactive) in [16]; 17 µM (inactive) in assay [18].
For `Cc1cc(OC(=O)Nc2ccc(Cl)cc2)ccc1C(=S)Nc1ccccc1`, the GI50 was 50.6 µM (inactive) in [1]; 91 µM (inactive) in assay [2]; > 100 µM (inactive) in assay [3]; 71.3 µM (inactive) in assay [4]; 60.3 µM (inactive) in assay [6]; 8.93 µM (inactive) in [7]. Further, the GI50 in assay [8] is 21.6 µM (inactive); in assay [9] it was 29.6 µM (inactive); in assay [10] it was 96.6 µM (inactive); in assay [11] it was 64.3 µM (inactive); in assay [12] it was 14 µM (inactive); in [13], > 100 µM (inactive). The GI50 in assay [14] was > 100 µM (inactive); in assay [19], 6.49 µM (inactive); in assay [15], 66.2 µM (inactive); in assay [16] it was 48.1 µM (inactive); in [17] it was 23.2 µM (inactive); in [18], > 100 µM (inactive).
With `O=C1Nc2cccc(Cl)c2/C1=C\c1c(Cl)nc2n1CCS2`, the GI50 in assay [1] is > 100 µM (inactive); in assay [2], > 100 µM (inactive); in assay [3] it was 56.9 µM (inactive); in [4], 45.6 µM (inactive); in assay [5], > 100 µM (inactive); in [6] it was 84.7 µM (inactive). The GI50 in [7], in [8], in assay [9], in assay [10], in assay [11] and in assay [12] was > 100 µM (inactive) each time. Also, the GI50 in assay [13], in assay [14], in assay [19], in [15], in assay [16] and in [17] was > 100 µM (inactive) each time. In addition, the GI50 in assay [18] was > 100 µM (inactive).
